According to US20070042056A1, “Anti-stress agent” (priority 2003, published 2007):

Tests used:
GABA receptor [1] = test: In vitro GABA receptor-activating activity, Xenopus oocyte expressing GABA receptor, voltage clamp; type: cell-based, rat; conditions: for GABA response to GABA receptor, relative value of inhibitory potential vs GABA only (set at 100%): GABA 5 μM
Procedure: As an experimental material, an oocyte of Xenopus was used. A rat-derived GABA receptor mRNA was injected into the nucleus of an oocyte to express GABA receptor on the surface of the egg. The oocyte was cultured in a normal Ringer's solution for frog (115 mM NaCl, 1 mM KCl, 1.8 mM CaCl2, 5 mM Tris, pH 7.2). Using the resulting oocyte, inhibitory potential of GABA (10 μM) and inhibitory potential of a mixed solution of GABA (10 μM) and the below mentioned sample were measured. Generation of inhibitory potential was measured by voltage clamp method using a voltage clamping amplifier (CEZ-1100; manufactured by NIHON KODEN CORPORATION).
As a sample, the following 9 kinds of aroma components contained in coffee or teas were used in a concentration of 2 μl/ml. Samples used are as follows: 2-methyl-3-buten-2-ol (expressed by 2-M3BOL in FIG. 1), 3-methyl-2-buten-1-ol (expressed by 3-M2BOL in FIG. 1), 1-penten-3-ol (expressed by 1-POL in FIG. 1), (E)-2-hexen-1-ol (expressed by HXOL in FIG. 1), 1-octen-3-ol (expressed by 1-OCOL in FIG. 1), sotolone (expressed by STOL in FIG. 1), 2,4-dimethylstyrene (expressed by 2,4-DMS in FIG. 1), benzothiazole (expressed by BZT in FIG. 1) and 2,3,5-trimethylphenol (expressed by 2,3,5-TEP in FIG. 1). The aforementioned samples used in the experiment were commercially available products. That is, sotolone manufactured by Ogawa & Co., Ltd. and other compounds manufactured by Tokyo Kasei Co., Ltd. were used.
As an index, enhancing activity of the sample on inhibitory potential induced by GABA was used. The results are expressed by % increase of the inhibitory potential when GABA and a sample were used in combination, relative to the inhibitory potential generated when only GABA (0.25 μM) was added (set at 100%).
Dose dependency of 1-octen-3-ol which had been recognized to have a strong activity in Example 1 was studied. The experimental procedures were entirely the same as those of Example 1. The concentration of GABA was 5 μM, and the concentration of 1-octen-3-ol was 0.3 to 1 mM. […] The results shown in FIG. 2 are expressed by the relative value of the inhibitory potential when GABA and 1-octen-3-ol were used in combination, compared to the inhibitory potential generated when only GABA (5 μM) was added (set at 100%).
As an experimental material, an oocyte of Xenopus was used. A rat-derived GABA receptor mRNA was injected into the nucleus of an oocyte to express GABA receptor on the surface of an egg. The oocyte was cultured in a normal Ringer's solution for frog (115 mM NaCl, 1 mM KCl, 1.8 mM CaCl2, 5 mM Tris, pH 7.2). Generation of the inhibitory potential induced by GABA (0.25 μM) was measured by voltage clamp method using a voltage clamping amplifier (CEZ-1100; manufactured by Nihon Koden corporation).
As samples, the below-mentioned 4 kinds of aroma components of oolong tea were used in a concentration of 0.5 mM. The samples used are as follows: cis-jasmone, methyl jasmonate, jasmine lactone and linalool oxide.
Dose dependency of cis-jasmone and methyl jasmonate which had been recognized to have a strong activity in Example 4 was studied. The experimental procedures were entirely the same as those of Example 4. The concentration of GABA was 5 μM, and the concentrations of cis-jasmone and methyl jasmonate were 0.2 to 1 mM. […] The results shown in FIG. 5 are expressed by the relative value of the inhibitory potential when GABA and cis-jasmone and methyl jasmonate were used in combination compared to the inhibitory potential generated when only GABA (5 μM) was added (set at 100%).

ddy male mice = test: Enhancing activity on pentobarbital-induced sleep (duration of the sleeping time); type: in vivo
Procedure: (§1) As a test animal, ddy male mice (8-week age) were purchased from Shimizu Laboratory Supplies Co., Ltd., pre-bred for one week and used in the experiment. Each five of the mice were bred in a polyisopentene cage (manufactured by Clea Japan. Inc.) in a breeding chamber where the breeding conditions were set at room temperature of 23±2° C., humidity of 55±5%, ventilation frequency of 12 to 15/hour (all fresh air ventilation), and lighting hours of 12 hours/day (from 7 a.m. to 7 p.m.). The mice were fed solid feed CE-2 (Clea Japan Inc.) and were allowed free access to water.
1-Octen-3-ol dissolved in olive oil was orally administered to a mouse at a dose of 20 or 100 mg/kg. In each group, 8 mice were used. Thirty minutes later, pentobarbital dissolved in physiological saline was intraperitoneally administered at a dose of 50 mg/kg, and duration of the sleeping time was measured. The sleeping time was defined as the time period from the loss of righting reflex until its recovery.
The experimental results shown in FIG. 3 are expressed by average±standard error, and Student t-test was used in a significant difference test.
as §1, with “Co.,” for “Co., Ltd.,”, “one week,” for “one week”, “air ventilation)” for “air ventilation),”, “12 hours a day” for “12 hours/day”, “(Clea Japan.” for “(Clea Japan”
A mouse was made to aspirate cis-jasmone and methyl jasmonate diluted to 0.1% in an exposure box until the completion of the experiment. In each group, 5 mice were used. Thirty minutes after initiation of aspiration, pentobarbital dissolved in physiological saline was intraperitoneally administered at a dose of 50 mg/kg, and duration of the sleeping time was measured. […]

rat = conditions: cited from earlier work; for development of gastric ulcer: cold-restraint stress (4° C., 2 hours), intraventricular administration
GABA receptor [2] = conditions: Biosci. Biotechnol. Biochem., 63, 743-748, 1999; cited from earlier work
[3] = 1998-1999 Scientific Research Subsidy Research Outcome Report; cited from earlier work
[4] = Example 4, FIG. 4, sample 0.5 mM, GABA 0.25 μM
[5] = Example 5, FIG. 5, sample 0.2 to 1 mM
[6] = Example 6, FIG. 6, aspiration of sample diluted to 0.1% in exposure box, pentobarbital 50 mg/kg i.p. after 30 min

Compound: C=CC(O)CCCCC (centres unmarked) [1-octen-3-ol]
- enhancing activity of the sample on inhibitory potential induced by GABA (GABA receptor [1]; Example 1, FIG. 1, sample 2 μl/ml, GABA 10 μM / 0.25 μM): strong activity to enhance the response
- GABA response to GABA receptor, relative value of inhibitory potential vs GABA only (set at 100%) (GABA receptor [1]; Example 2, FIG. 2, 1-octen-3-ol 0.3 to 1 mM): up to 400%
- duration of the sleeping time induced by pentobarbital (ddy male mice; Example 3, FIG. 3, orally 20 or 100 mg/kg in olive oil, 30 min before pentobarbital 50 mg/kg i.p.): extended duration of the sleeping time induced by pentobarbital in a dose dependent manner

Compound: NCCCC(=O)O [GABA]
- development of gastric ulcer (rat): suppressed in a dose dependent manner

Compound: NCc1cc(=O)[nH]o1 [Muscimol]
- development of gastric ulcer (rat): suppressed in a dose dependent manner

Compound: CN1CCc2cc3c(cc2[C@H]1[C@@H]1OC(=O)c2c1ccc1c2OCO1)OCO3 [bicuculine]
- effect on the inhibitory effect of GABA on stress ulceration (rat; cold-restraint stress, bicuculine 40 μg): diminishes the inhibitory effect of GABA on stress ulceration

Compound: CC/C=C\CC1=C(C)CCC1=O [cis-jasmone]
- enhancing activity of the sample on inhibitory potential induced by GABA (GABA receptor [1]; [4]): activity to enhance the response
- GABA response to GABA receptor, relative value of inhibitory potential vs GABA only (set at 100%) (GABA receptor [1]; [5]): up to 200%
- duration of the sleeping time induced by pentobarbital (ddy male mice; [6]): significantly extended duration of the sleeping time

Compound: CCCCCCO [hexanol]
- GABA receptor-activating activity (GABA receptor [2]): has GABA receptor-activating activity
- stress relaxing activity [3]: stress relaxing activity

Compound: CC/C=C\CC1C(=O)CCC1CC(=O)OC (centres unmarked) [methyl jasmonate]
- enhancing activity of the sample on inhibitory potential induced by GABA (GABA receptor [1]; [4]): activity to enhance the response
- GABA response to GABA receptor, relative value of inhibitory potential vs GABA only (set at 100%) (GABA receptor [1]; [5]): ≤ 300%
- duration of the sleeping time induced by pentobarbital (ddy male mice; [6]): significantly extended duration of the sleeping time
